System: RSV strain A2
Experiment: RSV antiviral cytoprotection assay in Hep2 cells (RSV-induced cytopathic effect, Cell TiterGlo)
Format: cell-based, Respiratory Syncytial Virus (RSV)
Conditions: RSV A2-infected Hep2 cells, % inhibition calculated from 4-parameter dose response curve, normalized to 0% and 100%; for inhibition at 0.5 µM: human respiratory syncytial virus, HEp-2, 0.5 μM compound, read-out: Percent inhibition at 0.5 μM
Method in brief: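 Hep2 cells were infected with RSV A2 and exposed to 3-fold compound dilutions, either 3,000 cells/well for 4 days (96-well) or 2000 cells/well at MOI 1:1000 for 5 days at 37° C. (384-well). Cytopathic effect was read by Cell TiterGlo luminescence, and EC50 or normalized % inhibition came from curve fits against infected and uninfected controls.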

Compound	inhibition at 0.5 µM [%]	Percent inhibition at 0.5 μM (0.5 μM compound, 0.5 µM) [%]
Cc1cn2nc([C@@H]3CCCCN3C(=O)c3c(F)cccc3F)cc2nc1N1CC[C@H](N)C1 [Compound 79]	100	–
Cc1ccc(C(=O)N2CCCC[C@H]2c2cc3nc(N4C[C@@H](C#N)[C@@H](O)C4)c(C)cn3n2)c(C(F)(F)F)c1 [Compound 121]	92	–
Cc1cn2nc([C@@H]3CCCCN3C(=O)c3cc(Cl)ccc3NS(C)(=O)=O)cc2nc1NC(C)CN (some centres unmarked) [Compound 5]	100	–
Cc1cn2nc([C@@H]3CCCCN3C(=O)c3c(Cl)cnn3C(C)C)cc2nc1N1C[C@@H](C#N)[C@@H](O)C1 [Compound 190]	100	–
Cc1cn2nc([C@@H]3CCCCN3C(=O)c3ccc(C)c(F)c3F)cc2nc1N1C[C@@H](C#N)[C@@H](O)C1 [Compound 118]	99	–
COc1cc(C)ccc1C(=O)N1CCCC[C@H]1c1cc2nc(N3CC[C@H](N)C3)c(C)cn2n1 [Compound 92]	100	–
Cc1cn2nc([C@@H]3CCCCN3C(=O)c3cccc4cn[nH]c34)cc2nc1N1CC[C@H](N)C1 [Compound 38]	100	–
Cc1cn2nc([C@@H]3CCCCN3C(=O)c3c(C)cccc3C)cc2nc1N1CC[C@H](N)C1 [Compound 88]	100	–
Cc1cn2nc([C@@H]3CCCCN3C(=O)c3cccc4c3OCO4)cc2nc1N1CC[C@H](N)C1 [Compound 61]	100	–
Cc1cn2nc([C@@H]3CCCCN3C(=O)c3ccc4cccc(F)c4n3)cc2nc1N1CC[C@H](N)C1 [Compound 52]	71	–
Cc1cn2nc([C@@H]3CCCCN3C(=O)c3cc(Cl)ccc3NS(C)(=O)=O)cc2nc1N1CCN[C@@H](C(C)C)C1 [Compound 22]	55	–
COc1ccc(S(N)(=O)=O)cc1C(=O)N1CCCC[C@H]1c1cc2nc(N3CC[C@H](N)C3)c(C)cn2n1 [Compound 29]	71	–
Cc1ccc(C(F)(F)F)c(C(=O)N2CCCC[C@H]2c2cc3nc(N4C[C@@H](C#N)[C@@H](O)C4)c(C)cn3n2)c1 [Compound 120]	100	–
Cc1cn2nc([C@@H]3CCCCN3C(=O)c3ncccc3Cl)cc2nc1N1C[C@@H](C#N)[C@@H](O)C1 [Compound 115]	98	–
Cc1cn2nc([C@@H]3CCCCN3C(=O)c3ccc(F)cc3F)cc2nc1N1C[C@@H](C#N)[C@@H](O)C1 [Compound 150]	99	–
Cc1cn2nc([C@@H]3CCCCN3C(=O)c3cccc(F)c3C)cc2nc1N1C[C@@H](C#N)[C@@H](O)C1 [Compound 172]	100	–
COc1ccccc1C(=O)N1CCCC[C@H]1c1cc2nc(N3CC[C@H](N)C3)c(C)cn2n1 [Compound 27]	100	–
Cc1cn2nc([C@@H]3CCCCN3C(=O)c3cc(Cl)cc(Cl)n3)cc2nc1N1CC[C@H](N)C1 [Compound 100]	100	–
Cc1cn2nc([C@@H]3CCCCN3C(=O)c3ccc(F)cn3)cc2nc1N1CC[C@H](N)C1 [Compound 26]	84	–
Cc1cn2nc([C@@H]3CCCCN3C(=O)c3cccc4c3CCCN4)cc2nc1N1CC[C@H](N)C1 [Compound 60]	100	–
Cc1cccnc1C(=O)N1CCCC[C@H]1c1cc2nc(N3C[C@@H](C#N)[C@@H](O)C3)c(C)cn2n1 [Compound 179]	–	93
Cc1cn2nc([C@@H]3CCCCN3C(=O)c3cc(F)c(F)c(Cl)c3F)cc2nc1N1CC[C@H](N)C1 [Compound 28]	100	–
Cc1cn2nc([C@@H]3CCCCN3C(=O)c3cc(F)ccc3OC(F)(F)F)cc2nc1N1CC[C@H](N)C1 [Compound 37]	100	–
Cc1ccc(F)cc1C(=O)N1CCCC[C@H]1c1cc2nc(N3CC[C@H](N)C3)c(C)cn2n1 [Compound 78]	100	–

Compound	inhibition at 0.5 µM [%]	Percent inhibition at 0.5 μM (0.5 μM compound, 0.5 µM) [%]
COc1ccc(Cl)cc1C(=O)N1CCCC[C@H]1c1cc2nc(N3C[C@@H](C#N)[C@@H](O)C3)c(C)cn2n1 [Compound 201]	100	–
Cc1cn2nc([C@@H]3CCCCN3C(=O)c3cc(Cl)ccc3NS(C)(=O)=O)cc2nc1NCC1CCCNC1 (some centres unmarked) [Compound 15]	82	–
CCS(=O)(=O)c1ccc(F)c(C(=O)N2CCCC[C@H]2c2cc3nc(N4C[C@@H](C#N)[C@@H](O)C4)c(C)cn3n2)c1 [Compound 145]	60	–
CC(=O)Nc1ccc(C)cc1C(=O)N1CCCC[C@H]1c1cc2nc(N3CC(O)C(C#N)C3)c(C)cn2n1 (some centres unmarked) [Compound 203]	100	–
COc1ccsc1C(=O)N1CCCC[C@H]1c1cc2nc(N3C[C@@H](C#N)[C@@H](O)C3)c(C)cn2n1 [Compound 178]	100	–
COc1ccc(F)c(C(=O)N2CCCC[C@H]2c2cc3nc(N4CC[C@H](N)C4)c(C)cn3n2)n1 [Compound 107]	100	–
Cc1ccc(F)cc1C(=O)N1CCCC[C@H]1c1cc2nc(N3C[C@@H](C#N)[C@@H](O)C3)c(C)cn2n1 [Compound 156]	100	–
Cc1cn2nc([C@@H]3CCCCN3C(=O)c3cccc4cc[nH]c34)cc2nc1N1C[C@@H](C#N)[C@@H](O)C1 [Compound 151]	100	–
COc1ccc(C(C)(C)C)cc1C(=O)N1CCCC[C@H]1c1cc2nc(N3CC[C@H](N)C3)c(C)cn2n1 [Compound 34]	13	–
Cc1ccc(N2CCCS2(=O)=O)c(C(=O)N2CCCC[C@H]2c2cc3nc(N4C[C@@H](C#N)[C@@H](O)C4)c(C)cn3n2)c1 [Compound 197]	100	–
Cc1cn2nc([C@@H]3CCCCN3C(=O)c3cc(Cl)ccc3NS(C)(=O)=O)cc2nc1N1C[C@@H](N)C[C@@H]1C(=O)O [Compound 19]	70	–
Cc1cn2nc([C@@H]3CCCCN3C(=O)c3cccc(C)c3C)cc2nc1N1CC[C@H](N)C1 [Compound 87]	100	–
Cc1cn2nc([C@@H]3CCCCN3C(=O)c3cc(Cl)ccc3NS(C)(=O)=O)cc2nc1N1CCN[C@@H](C)C1 [Compound 7]	100	–
Cc1cn2nc([C@@H]3CCCCN3C(=O)c3ccnn3CC(F)(F)F)cc2nc1N1C[C@@H](C#N)[C@@H](O)C1 [Compound 189]	89	–
Cc1cn2nc([C@@H]3CCCCN3C(=O)c3cccc4c3cnn4C)cc2nc1N1CC[C@H](N)C1 [Compound 98]	97	–
Cc1cn2nc([C@@H]3CCCCN3C(=O)c3cccc(-c4ccccc4)n3)cc2nc1N1CC[C@H](N)C1 [Compound 80]	14	–
Cc1cn2nc([C@@H]3CCCCN3C(=O)c3cc(Cl)ccn3)cc2nc1N1CC[C@H](N)C1 [Compound 83]	99	–
Cc1cn2nc([C@@H]3CCCCN3C(=O)c3cccc4c3CCCC4)cc2nc1N1C[C@@H](C#N)[C@@H](O)C1 [Compound 162]	100	–
Cc1cc(C)n2c(C(=O)N3CCCC[C@H]3c3cc4nc(N5CC[C@H](N)C5)c(C)cn4n3)nnc2n1 [Compound 55]	5	–
Cc1cn2nc([C@@H]3CCCCN3C(=O)c3ncc(Cl)cc3C(F)(F)F)cc2nc1N1CC[C@H](N)C1 [Compound 104]	56	–
Cc1cn2nc([C@@H]3CCCCN3C(=O)c3cc(Cl)ccc3NS(C)(=O)=O)cc2nc1N1C[C@@H]2C[C@H]1CN2 [Compound 18]	70	–
Cc1cn2nc([C@@H]3CCCCN3C(=O)c3cc(Cl)ccc3NS(C)(=O)=O)cc2nc1N1CCN[C@H](Cc2ccccc2)C1 [Compound 17]	70	–
Cc1cn2nc([C@@H]3CCCCN3C(=O)c3c(F)ccc(C)c3F)cc2nc1N1C[C@@H](C#N)[C@@H](O)C1 [Compound 124]	100	–
